Among the data in ChEMBL document CHEMBL1144216, “Suppression of cytokine production in lipopolysaccharide-stimulated mouse macrophages by novel cationic glucosamine derivative involves down-regulation of NF-kappaB and MAPK expressions” (2008) are Activity and inhibition values, retold here.

Each structure is given as a SMILES string. The source made the active and inactive calls. The calls are words filed in the database; no cut-off is given here.

For test [1], the system named is RAW264.7. Nature of the test: Inhibition of LPS-stimulated PGE2 production in mouse RAW264.7 cells treated 1 hr before LPS challenge after 24 hrs by ELISA. The test is classed as functional, cell-based.
Test [2] deals with RAW264.7. Kind of test: Inhibition of LPS-stimulated IL1-beta production in mouse RAW264.7 cells treated 1 hr before LPS challenge after 24 hrs by ELISA. The test is classed as functional, cell-based. (ELISA stands for enzyme-linked immunosorbent assay.)
In test [3] the test system is RAW264.7. Kind of test: Inhibition of LPS-stimulated TNFalpha production in mouse RAW264.7 cells treated 1 hr before LPS challenge after 24 hrs by ELISA. The test is classed as functional, cell-based.
Test [4] has as its system RAW264.7. Nature of the test: Inhibition of LPS-stimulated IL6 production in mouse RAW264.7 cells treated 1 hr before LPS challenge after 24 hrs by ELISA. The format is functional, cell-based.
For test [5], the system named is RAW264.7. Kind of test: Inhibition of LPS-stimulated p38MAPK expression in mouse RAW264.7 cells by Western blotting. The format is functional, cell-based.
Test [6] concerns RAW264.7. Nature of the test: Inhibition of LPS-stimulated ERK expression in mouse RAW264.7 cells by Western blotting. The test is classed as functional, cell-based. For orientation: Immunoblotting shows a protein as a band on a membrane.
Test [7] deals with RAW264.7. Nature of the test: Inhibition of LPS-stimulated IL6 production in mouse RAW264.7 cells at 50 ug/ml treated 1 hr before LPS challenge after 24 hrs by ELISA. The format is functional, cell-based.
For test [8], the system named is RAW264.7. Nature of the test: Inhibition of IKK protein expression in mouse RAW264.7 cells by Western blotting. The format is functional, cell-based.
Test [9] relates to RAW264.7. Nature of the test: Effect on level of NIK in mouse RAW264.7 cells by Western blotting. The format is functional, cell-based.
For test [10], the system named is RAW264.7. Nature of the test: Inhibition of LPS-stimulated JNK level in mouse RAW264.7 cells by Western blotting. The format is functional, cell-based.
Test [11] concerns RAW264.7. Kind of test: Reduction of LPS-induced NF-kappaB translocation in mouse RAW264.7 cells assessed as NF-kappaB p65 protein expression level at 40 ug/mL by Western blotting. The test is classed as functional, cell-based.
Test [12] has as its system RAW264.7. Nature of the test: Increase in IkappaB protein expression in mouse RAW264.7 cells by Western blotting relative to control. The format is functional, cell-based.
The subject of test [13] is RAW264.7. Kind of test: Inhibition of LPS-stimulated IL1-beta production in mouse RAW264.7 cells at 60 ug/mL by Western blot analysis. The test is classed as functional, cell-based.
Test [14] deals with RAW264.7. Kind of test: Inhibition of LPS-stimulated TNFalpha production in mouse RAW264.7 cells at 50 ug/ml treated 1 hr before LPS challenge after 24 hrs by ELISA. The format is functional.
The subject of test [15] is RAW264.7. Nature of the test: Inhibition of LPS-stimulated IL6 production in mouse RAW264.7 cells at 60 ug/mL by Western blot analysis. The format is functional, cell-based.
The subject of test [16] is RAW264.7. Kind of test: Reduction of LPS-induced NF-kappaB translocation in mouse RAW264.7 cells assessed as NF-kappaB p65 protein expression level at 60 ug/mL by Western blotting. The test is classed as functional, cell-based.
For test [17], the system named is RAW264.7. Kind of test: Inhibition of LPS-stimulated TNFalpha production in mouse RAW264.7 cells at 60 ug/mL by Western blot analysis. The format is functional, cell-based.
The subject of test [18] is RAW264.7. Kind of test: Inhibition of LPS-induced NF-kappaB promoter activity in mouse RAW264.7 cells by luciferase reporter assay. The test is classed as functional, cell-based. On the technique in general: Reporter assays use an easily measured gene product as a stand-in for the process of interest.
For test [19], the system named is RAW264.7. Nature of the test: Inhibition of LPS-stimulated PGE2 production in mouse RAW264.7 cells at 50 ug/ml treated 1 hr before LPS challenge after 24 hrs by ELISA. The format is functional.
Test [20] has as its system RAW264.7. Nature of the test: Inhibition of LPS-stimulated IL1-beta production in mouse RAW264.7 cells assessed as IL1-beta level at 50 ug/ml treated 1 hr before LPS challenge after 24 hrs by ELISA. The format is functional.

As to `N[C@H]1C(O)O[C@H](CO)[C@@H](O)[C@@H]1O` (stereo not given in full), the Activity entry in the test on RAW264.7 [1], with RAW264.7 [2], with RAW264.7 [3] and in the test with RAW264.7 [4] was “Dose-dependent effect” in each case.

As a reminder, the inhibition is how much of the control response was suppressed. A low value points to a response near the control. As to `C[N+](C)(C)CC(O)CN[C@@H]1[C@@H](O)[C@H](O)[C@@H](CO)O[C@H]1O.[Cl-]` (stereo not given in full), the Activity entry was “Dose-dependent effect” with RAW264.7 [5], “Dose-dependent effect” in the test on RAW264.7 [10], “Dose-dependent effect” with RAW264.7 [18] and 100 pg/mL in the test with RAW264.7 [20]. The outcome with RAW264.7 [6] and with RAW264.7 [9] was inactive. For the same compound, the outcome with RAW264.7 [7], with RAW264.7 [8], in the test with RAW264.7 [11], in the test on RAW264.7 [12], in the test with RAW264.7 [13] and with RAW264.7 [15] was Active. Besides, the result in the test with RAW264.7 [16] and in the test on RAW264.7 [17] was Active. Further, the inhibition at 50 µg/mL in the test with RAW264.7 [14] was 45%; in the test on RAW264.7 [19] it was 50%.
